Data: patent publication US6448232B1, “Method of using dihydrochalcone derivatives to block glucose transfer” (priority 1999, dated 2002)

What was measured:
Format in all cases: in vivo
[1] = Body weight during oral phlorizin three times a day on an empty stomach; conditions: for Weight after 3 days of phlorizin: 1.5 grams oral three times a day, 90 minutes before eating
Description: 1.5 grams phlorizin as a dry powder in a gelatin capsule was ingested orally three times a day, 90 minutes before eating on an empty stomach. Weight measured at the same time each day with a digital electronic scale. Normal dietary conditions were maintained during the time that the phlorizin was ingested.

[2] = Serum insulin after ingesting 100 g of carbohydrates, immunoassay; conditions: 1.5 g oral one hour prior to 100 g of carbohydrates
Description: (§1) 1.5 g of phlorizin as a dry powder in a gelatin capsule was ingested one hour prior to ingesting 100 g of carbohydrates and compared to similar ingestion of carbohydrates without the prior consumption of the phlorizin. Glucose and insulin levels were measured just prior to and 30 and 60 minutes following carbohydrate ingestion and glucose levels were also measured 90 and 120 minutes after carbohydrate ingestion. Glucose levels were established by glucose oxidase reaction using whole blood and measuring the color generated with a hand-held spectrophotometer. Serum insulin was measured using commercially available immunoassay devices and methods.

[3] = Urine glucose after oral ingestion of phlorizin, no food versus in milk; conditions: 1 gm oral; for urine glucose: 85 kg male
[4] = Whole blood glucose after ingesting 100 g of carbohydrates, glucose oxidase reaction
Description: as §1

O=C(CCc1ccc(O)cc1)c1c(O)cc(O)cc1O[C@@H]1O[C@H](CO)[C@@H](O)[C@H](O)[C@H]1O [phlorizin]
effect on body weight ([1]; 1.5 grams oral three times a day for 3 days, conclusion in words): effective in reducing body weight
Weight after 3 days of phlorizin ([1]; Experiment 1, pre-phlorizin weight 192.2 lbs.): 189.4 lbs.
Weight after 3 days of phlorizin ([1]; Experiment 2, pre-phlorizin weight 193.2 lbs.): 185.4 lbs.
Weight after 3 days of phlorizin ([1]; Experiment 3, pre-phlorizin weight 191.5 lbs.): 186.8 lbs.
Weight after 3 days of phlorizin ([1]; Experiment 4, pre-phlorizin weight 194.4 lbs.): 189.0 lbs.
INSULIN ([2]; 0 minutes (just prior to carbohydrate ingestion)): 5 microIU/ml
INSULIN ([2]; 30 minutes after carbohydrate ingestion): 34 microIU/ml
INSULIN ([2]; 60 minutes after carbohydrate ingestion): 28 microIU/ml
urine glucose ([3]; in milk, 0 minutes after ingestion): no food: <50 mg/dl in milk: <50 mg/dl
urine glucose ([3]; in milk, 90 minutes after ingestion): < 50 mg/dL
urine glucose ([3]; in milk, 150 minutes after ingestion): no food: 50 mg/dl in milk: <50 mg/dl
urine glucose ([3]; in milk, 210 minutes after ingestion): no food: <50 mg/dl in milk: <50 mg/dl
urine glucose ([3]; no food (empty stomach), 0 minutes after ingestion): no food: <50 mg/dl in milk: <50 mg/dl
urine glucose ([3]; no food (empty stomach), 90 minutes after ingestion): 500 mg/dL
urine glucose ([3]; no food (empty stomach), 150 minutes after ingestion): no food: 50 mg/dl in milk: <50 mg/dl
urine glucose ([3]; no food (empty stomach), 210 minutes after ingestion): no food: <50 mg/dl in milk: <50 mg/dl
effectiveness as a glucose blocker (urine glucose) ([3]; no food versus in milk, conclusion in words): effective as a glucose blocker only if it is ingested without food on an empty stomach
GLUCOSE ([4]; 1.5 g oral one hour prior to 100 g of carbohydrates, 0 minutes (just prior to carbohydrate ingestion)): 90 mg/dL
GLUCOSE ([4]; 1.5 g oral one hour prior to 100 g of carbohydrates, 30 minutes after carbohydrate ingestion): 146 mg/dL
GLUCOSE ([4]; 1.5 g oral one hour prior to 100 g of carbohydrates, 60 minutes after carbohydrate ingestion): 144 mg/dL
GLUCOSE ([4]; 1.5 g oral one hour prior to 100 g of carbohydrates, 90 minutes after carbohydrate ingestion): 108 mg/dL
GLUCOSE ([4]; 1.5 g oral one hour prior to 100 g of carbohydrates, 120 minutes after carbohydrate ingestion): 117 mg/dL
effect on postprandial rise in glucose and insulin levels ([4]; 1.5 g oral one hour prior to 100 g of carbohydrates, conclusion in words): able to decrease the postpandrial rise in glucose and insulin levels
prevention of reactive hypoglycemia ([4]; glucose levels at 90 and 120 minutes with and without phlorizin, conclusion in words): effective in preventing reactive hypoglycemia
